Results from publication PMC5707067, “Farnesyl phenolic enantiomers as natural MTH1 inhibitors from Ganoderma sinense” (Oncotarget, 2017).

Tests used:
[1] = test system: human osteosarcoma cells (U2OS); assay: CCK8 cytotoxicity assay, U2OS; format: cell-based; conditions: CCK8, 48 h, carcinoma cell line
Description: (§1) The growth inhibitory effects of the isolated farnesyl phenolic compounds (1–8) against carcinoma cell lines [human osteosarcoma cells (U2OS), human colorectal carcinoma cells (SW620), human ES-2 ovarian carcinoma cells (ES-2)] and normal tissue cell lines [human hepatic cells (Lo2), African green monkey kidney vero cells (Vero)] were further investigated using CCK8 assay method (Table 3).
(§2) Carcinoma cell lines [human osteosarcoma cells (U2OS), human colorectal carcinoma cells (SW620), human ES-2 ovarian carcinoma cells (ES-2)] and normal tissue cell lines [human hepatic cells (Lo2), African green monkey kidney Vero cells (Vero)] The U2OS, SW620, ES-2, Lo2 and Vero were obtained from ATCC (Manassas, VA, USA). The SW620 and Vero cells were cultured in Roswell Park Memorial Institute medium (RPMI), with 10% fetal bovine serum (Hyclone) and 1% penicillin-streptomycin (Sigma). Lo2, U2OS and ES-2 cells were grown in Dulbecco's modified eagle medium (DMEM), with 10% fetal bovine serum (Hyclone) and 1% penicillin-streptomycin (Sigma). All of these cells were cultured at 37°C in a humidified atmosphere with 5% CO2. For CCK8 assay cytotoxicity evaluation of compounds, all cells were separately plated at a density of 1 × 10^4 cells/well in a 96 well plate. Cells were cultivated at 37°C in 5% CO2 atmosphere for 24 h, then medium in the wells was replaced with fresh medium containing compounds which were diluted in 8 dilution steps covering the range from 200 μM to 1.5625 μM. And DMSO was used as negative control. After 48 h incubation, 10 μL of CCK8 solution was added to each well. After 30 min, the optical density (OD) of each well was measured at wavelength of 450 nm on spectrophotometer. Data were corrected for background (no-cell control) and expressed as a percentage of the value for untreated cells. The IC50 values of the isolated compounds were derived from the mean OD values of the triplicate tests versus the drug concentration curves.

[2] = test system: human colorectal carcinoma cells (SW620); assay: CCK8 cytotoxicity assay, SW620; format: cell-based; conditions: CCK8, 48 h, carcinoma cell line
Description: as §1, §2

[3] = test system: human hepatic cells (Lo2); assay: CCK8 cytotoxicity assay, Lo2; format: cell-based; conditions: CCK8, 48 h, normal tissue cell line
Description: as §1, §2

[4] = test system: human ES-2 ovarian carcinoma cells (ES-2); assay: CCK8 cytotoxicity assay, ES-2; format: cell-based; conditions: CCK8, 48 h, carcinoma cell line
Description: as §1, §2

[5] = test system: African green monkey kidney vero cells (Vero); assay: CCK8 cytotoxicity assay, Vero; format: cell-based; conditions: CCK8, 48 h, normal tissue cell line
Description: as §1, §2

[6] = target: T1, MTH1 (Homo sapiens, UniProt P36639); assay: Enzyme inhibition assay (8-oxo-dGTP hydrolysis, HPLC); format: biochemical; design: hexa-histidine (His6) (N, cleaved yes); made in house; host or cells: E. coli BL21 Star; conditions: 8-oxo-dGTP 25 μM, purified MTH1
Description: Microscale thermophoresis method (MST) was employed to assay the binding affinity between the compounds and MTH1. This technology can quantify protein-protein interactions or protein-small molecule interactions with high sensitivity through detecting fluorescent changes of molecules during thermophoresis.
To identify the efficacy of the eight compounds, an enzyme inhibition assay was carried out. […] Then the reaction was stop by the addition of 20 μL ice-cold Na2EDTA (50 mM). The reaction mixture was centrifugated at 15000 rpm at 4°C for 10 min. 20 μL of supernatant was injected on an HPLC column (Ultimate AQ-C18 RP-18e, 250 mm × 4.6 mm × 5 μm), and eluted isolate with 100 mM Na2HPO4-NaOH (pH 5.5)/MeOH 95:5 with flow rate 1 mL/min at column room of 30°C. […] Measurements were done in triplet, and IC50 values were calculated to compare the efficiency of various compounds.

[7] = CCK8 cytotoxicity assay, Lo2; format: cell-based, human; conditions: human, Lo2 human hepatic cells (normal tissue cell line), CCK8, 48 h
Description: as §1, §2

[8] = target: T1, MTH1; assay: Microscale thermophoresis (MST) binding assay
Description: Microscale thermophoresis method (MST) was employed to assay the binding affinity between the compounds and MTH1. […] The dissociation constant Kd values were automatically calculated by using the NT Analysis software (Nano Temper Technologies, München, Germany).
Recombinant human MTH1 was labeled with the Monolith NT™ Protein Labeling Kit RED (Cat#L001) according to the supplied labeling protocol [32]. Labelled MTH1 was kept constant at 100 nM, while all samples tested were diluted in a 20 mM HEPES (pH 7.5) and 0.05 (v/v) % Tween-20. Compounds were diluted in 12 dilution steps covering the range from 500 μM to 200 nM. After 10 min incubation at room temperature about 37°C, samples were loaded into Monolith™ standard-treated capillaries and the thermophoresis was measured at 25°C after 30 min incubation on a Monolith NT.115 instrument (NanoTemper Technologies, München, Germany). Laser power was set to 20% using 30 seconds on-time. The LED power was set to 100%. The dissociation constant Kd values were fitted by using the NTAnalysis software (NanoTemper Technologies, München, Germany). The Kd value of the binding was obtained in two ways. The first way was calculated by thermophoresis curve when there was no fluorescent change during the initial fluorescence scanning. The second way was calculated from the initial fluorescence scanning curve when compounds bound in the sites which directly interfered the fluorescence.

[9] = CCK8 cytotoxicity assay, Vero; format: cell-based, African green monkey; conditions: African green monkey, Vero kidney cells (normal tissue cell line), CCK8, 48 h
Description: as §1, §2

[10] = Homo sapiens, Ovarian carcinoma cell

SMILES	IC50 [6] [µM]	Kd [8] [µM]	IC50 [1] [µM]	IC50 [2] [µM]	IC50 [3] [µM]	IC50 [4] [µM]	IC50 [5] [µM]	IC50 ([1]; Homo sapiens, U2OS) [µM]	IC50 ([2]; Homo sapiens, SW-620) [µM]	IC50 at 48 h [7] [µM]	IC50 [4, 10] [µM]	IC50 at 48 h [9] [µM]
C[C@H](Oc1cc(-c2cnn(C3CCNCC3)c2)cnc1N)c1c(Cl)ccc(F)c1Cl [(S)-crizotinib, reference compound]	–	–	32.3 ± 1.28	17.5 ± 1.11	26 ± 1.2	9.09 ± 1.06	16.7 ± 1.15	–	–	–	–	–
C/C(=C\CCC(CO)CCCC1=C[C@H](c2cc(O)ccc2O)OC1=O)COC(=O)/C=C/c1ccc(O)cc1 (stereo partly drawn) [Compound 3, (5R)-3-{9-[(E)-coumaroyl]-4-hydroxymethyl-8-methyl-7-nonene}-5-(2,5-dihydroxyphenyl)-2(5H)-furanone]	22.9 ± 1.04	246 ± 38.7	–	–	–	–	–	73.2 ± 1.24	70.9 ± 1.08	> 300	90.6 ± 1.12	> 300
C/C(=C\CCC(CO)CCCC1=C[C@@H](c2cc(O)ccc2O)OC1=O)COC(=O)/C=C/c1ccc(O)cc1 (stereo partly drawn) [Compound 4, (5S)-3-{9-[(E)-coumaroyl]-4-hydroxymethyl-8-methyl-7-nonene}-5-(2,5-dihydroxyphenyl)-2(5H)-furanone]	22.9 ± 1.07	4.63 ± 0.519	–	–	–	–	–	66.4 ± 1.11	56.5 ± 1.15	279.1 ± 2.17	64.2 ± 1.28	> 300
CO[C@]1(c2cc(O)cc(O)c2)C=C(CC/C=C(\CO)CC/C=C(\C)COC(=O)/C=C/c2ccc(O)cc2)C(=O)O1 [Compound 7]	28.5 ± 1.05	103 ± 32.1	–	–	–	–	–	96.3 ± 1.13	101 ± 1.07	> 300	74.5 ± 1.17	> 300
CO[C@@]1(c2cc(O)cc(O)c2)C=C(CC/C=C(\CO)CC/C=C(\C)COC(=O)/C=C/c2ccc(O)cc2)C(=O)O1 [Compound 8]	26.6 ± 1.03	210 ± 42.7	–	–	–	–	–	95.4 ± 1.05	55.2 ± 1.16	> 300	60.9 ± 1.34	> 300

More lines, main results first:

IC50 [6] [µM]	Kd [8] [µM]	SMILES	IC50 [1] [µM]	IC50 [2] [µM]	IC50 [3] [µM]	IC50 [4] [µM]	IC50 [5] [µM]	IC50 ([1]; Homo sapiens, U2OS) [µM]	IC50 ([2]; Homo sapiens, SW-620) [µM]	IC50 at 48 h [7] [µM]	IC50 [4, 10] [µM]	IC50 at 48 h [9] [µM]
11 ± 1.03	2.38 ± 0.663	CO[C@@]1(c2cc(O)cc(O)c2)C=C(CCCC(CO)CC/C=C(\C)COC(=O)/C=C/c2ccc(O)cc2)C(=O)O1 (stereo partly drawn) [Compound 2, (5S)-3-{9-[(E)-coumaroyl]-4-hydroxymethyl-8-methyl-7-nonene}-5-(3,5-dihydroxyphenyl)-5-methoxy-2(5H)-furanone]	–	–	–	–	–	54.2 ± 1.1	104 ± 1.07	> 300	76.8 ± 1.09	260.4 ± 1.16
16.3 ± 1.03	296 ± 13.3	CO[C@]1(c2cc(O)ccc2O)C=C(CCCC(CO)CC/C=C(\C)COC(=O)/C=C/c2ccc(O)cc2)C(=O)O1 (stereo partly drawn) [Compound 5, (5R)-3-{9-[(E)-coumaroyl]-4-hydroxymethyl-8-methyl-7-nonene}-5-(2,5-dihydroxyphenyl)-5-methoxy-2(5H)-furanone]	–	–	–	–	–	64.4 ± 1.08	–	> 300	80.1 ± 3.56	> 300
8.62 ± 1.03	113 ± 25.4	CO[C@@]1(c2cc(O)ccc2O)C=C(CCCC(CO)CC/C=C(\C)COC(=O)/C=C/c2ccc(O)cc2)C(=O)O1 (some centres unmarked) [Compound 6]	–	–	–	–	–	57.8 ± 1.07	53.7 ± 1.06	> 300	37.3 ± 3.56	> 300
